Laboratory results from PMC6145916, “Interaction of mitochondrial fission factor with dynamin related protein 1 governs physiological mitochondrial function in vivo” (Scientific Reports, 2018).
Where no end group is shown, it is not given here.

Tests used:
primary cortical neurons = test: Mitochondrial motility, primary cortical neurons; format: cell-based, rat; details: 4 µM P259, one hour
Description: Bottom, quantification of the form factor (degree of branching) and aspect ratio (major/minor axis length). At least 10,000 mitochondrial fragments were analyzed for each condition. Mitochondrial reactive oxygen species production (MitoSox Red) (b) and membrane potential (TMRM) (c) after overnight treatment with indicated concentrations of peptide (n = 3, with 3 replicates). […] Overlay of live microscopy imaging at time 0 (green) and 150 (red) seconds. […] An estimation of the % mobile mitochondria from the Pearson coefficient of each set of images. Data are mean ± s.e.
To quantify mitochondrial motility, the TMRM images were colored green and red at times 0 and 150 seconds, respectively. Mitochondrial motility corresponded to decreased co-localization of the two colors (Fig. 3d). […] Therefore, Mff-mediated anchoring of Drp1 on the outer mitochondrial membrane was necessary for mitochondrial motility in primary cortical neurons.
DMI6000B inverted microscope. All mitochondria were imaged with a GFP fi lter. Then, green […]
filter every 30 seconds for 5 minutes. The initial image was subtracted from each subsequent image to track signal change over time. […]
GFP filter (Keyence). […] The GFP and MitoSox signals were measured in a ring around each nucleus. Average MitoSox levels were quantified in […]
To quantify mitochondrial motility, the images at time 0 and 150 seconds w ere overlaid. […]

[1] = system: neuroblastoma SH-SY5Y cells; test: Mitochondrial morphology (Tom20 immunofluorescence), SH-SY5Y; format: cell-based, human
Description: Represented Western blot is cropped from a full blot shown in the Expanded Western Blots section of the Supplementary Information. […] Hoechst 33342 is shown in blue and Tom20 in green (n = 3, 10 images each). Below, quantification of the form factor (degree of branching) and major axis length (length of mitochondria). At least 6,000 mitochondrial fragments were measured for each condition. Mitochondrial reactive oxygen species (ROS) production (MitoSox Red) (c) and mitochondrial membrane potential (TMRM) (d) after overnight treatment with indicated concentrations of peptide or FCCP. Data are from 3 independent experiments per condition normalized to the average no peptide value. (e) Relative mitochondrial ROS (MitoSox Red) signal in GFP positive cells expressing full-length or alanine-substituted P259 at indicated amino acids after two days of transfection. Values are normalized to a GFP empty vector (n = 3, with 3 replicates). […] Data are mean ± s.e. […]
Cells were fixed onto Permanox plastic slides with 4% paraformaldehyde in PBS for 10 minutes at room temperature. Cells were permeabilized in 0.1% Triton X-100 and 1% normal goat serum (blocking buffer) for one hour at room temperature. Permeabilized cells were incubated overnight with primary anti-Tom20 antibody (Santa Cruze Biotech, sc-11415, 1:250 dilution) in a humidified chamber. Slides were subsequently incubated with FITC-conjugated goat anti-rabbit IgG for two hours at room temperature in a light-shielding humidified chamber. Cells were washed with blocking buffer and stained with Hoechst 33342 (Invitrogen, OR, USA, […]). Coverslips were mounted with a Slowfade antifade solution (Invitrogen, OR, USA). Images were acquired using an LSM 700 confocal laser-s canning microsc ope equipped with a Plan Apochromat 63x/1.4 NA oil-immersion objective (Zeiss).
Mitochondrial morphology analysis
High-throughput image analysis of mitochondrial morphology was performed using MATLAB with the Image Processing toolkit. Background illumination, obtained by morphological opening of the image, was subtracted from the original image. The image was then passed through a top - hat transformation to highlight objects from the background followed by a pixel-wis e adaptive low-pas s Wiener filter to remove noise. A 90th percentile threshold was used to convert the image to a binary image. Erroneously large and small objects were removed from the image and morphological features were extracted from the binary objects. Major axis length is defined as th e length of the longest line that can be drawn through a binary object while the minor axis length is defined as the length of the shortest line. The aspect ratio is defined by the major axis length divided by the minor axis length. […]

[2] = 4 µM TAT-P259, 30-minute treatment, vs TAT, n = 3

YGRKKRRQRRRGSGIIQLPEIVVV-NH2 (C-terminus assumed) [P259]
% mobile mitochondria (primary cortical neurons; TMRM images 0 vs 150 sec, estimated from Pearson coefficient, basal approximately 37%, n = 4 control and 6 P259): ~ 22% | decline in the proportion of mobile mitochondria (primary cortical neurons; vs no peptide control): 40% | form factor (degree of branching) [1, 2]: higher form factors | major axis length [1, 2]: increased major axis lengths | mitochondrial morphology ([1]; 4 µM TAT-P259 or 10 µM Mdivi-1, 30-minute treatment, n = 3, 10 images each): more elongated and branched mitochondria
